Measured values taken from paper PMC8457056, “Remodeling of the Fibrillation Pathway of α‐Synuclein by Interaction with Antimicrobial Peptide LL‐III” (Chemistry (Weinheim an Der Bergstrasse, Germany), 2021).

Assays:
[1] = tested on: α‐Syn; test: fraction of complexed α-Syn calculated from Kb; type: binding, human; settings: 100 μM α-Syn, calculated from K b
Description: From the magnitude of K b, the fraction of complexed α‐Syn in the microscopy experiments could be calculated (Figure S5). For 100 μM α‐Syn, the fraction of complexed α‐Syn, θ, in the presence of 50 μM LL‐III amounts to about 0.3. […] This is likely due to the ability of the peptide to interact with one or two α‐Syn molecules within the droplets. The interaction is expected to occur mainly via the interaction of the positively charged (+6) and hydrophobic groups of LL‐III with the negatively charged C‐terminus (−12) and hydrophobic NAC region of α‐Syn, respectively. […] In the presence of 200 μM and 500 μM LL‐III, the θ‐values are 0.70 and 0.90, respectively.
Figure S4. Binding isotherm obtained by means of Trp steady-state fluorescence anisotropy. The experiment was performed by titrating a 5 µM solution of LL-III with a solution of α-Syn in the range 0-50 µM. The red line represents the best fit according to a 1:1 binding model. The experiments were performed in 20 mM sodium acetate buffer, pH 5.0, at 25 °C.
Figure S5. Plot of the fraction of bound α -Syn as a function of the total peptide concentration. The fraction of bound α -Syn was calculated according to the concentration used in the phase- contrast light microscopy experiments reported in Figu re 1 B of the main text: 100 µ M α-Syn and 50 µM (grey circle), 200 µM (red circle) and 500 µ M (blue circle) of LL-III. […]

[2] = ref [28]; cited from earlier work
From the text: (§1) Antimicrobial peptides (AMPs) are a particular class of disordered proteins. They form an important part of the immune system of all living organisms and are considered as the first line of defense against infections caused by pathogens.[25, 26, 27] […] The LL‐III is a posi ...

[3] = tested on: cancer cells; settings: cited from earlier work
From the text: as §1

[4] = tested on: several bacterial strains, fungi; settings: ref [28]; cited from earlier work
From the text: as §1

[5] = tested on: α‐Syn; test: phase-contrast light microscopy of α-Syn droplet and fibril formation; type: biochemical, human
Description: Figure 1 A) Phase‐contrast light microscopy snapshots of 100 μM and 200 μM α‐Syn solutions collected 2, 4, 7, 9 and 16 days after incubation of the monomeric α‐Syn. B) Phase‐contrast light microscopy snapshots of a solution of 100 μM α‐Syn in the presence of the reported concentration of antimicrobial peptide LL‐III. Each sample was prepared by mixing the monomeric form of α‐Syn with LL‐III. The pictures were taken after 9 and 16 days of incubation. For the snapshots after 16 days, at each peptide concentration, two different regions of the cover slip were sampled, showing the presence of discrete droplets as well as droplet clusters in solution. C) Phase‐contrast light and fluorescence microscopy snapshots of a 100 μM α‐Syn solution in the presence of 50 μM LL‐III (total peptide concentration, the concentration of the carboxyfluorescein‐labelled peptide was 1 μM). All the experiments were performed at room temperature (25 °C) in 20 mM sodium acetate buffer, pH 5.0. The scale bar is 30 μm.
To reveal if the short antimicrobial peptide LL‐III is able to affect the fibril formation of α‐Syn, we performed a series of microscopy experiments by using 100 μM of α‐Syn and varying the concentration of LL‐III between 50 μM and 500 μM. The samples were prepared by mixing a solution of LL‐III peptide and α‐Syn in the monomeric state and taking pictures after 9 and 16 days. The results are collected in Figure 1B. […] After 9 days, droplets as well as clusters thereof were visible. The size of the clusters depended on the LL‐III concentration. Higher peptide concentrations promoted the association of more droplets. […] To confirm partitioning of the LL‐III peptide in the α‐Syn droplets, complementary fluorescence microscopy experiments were performed using a carboxyfluorescein‐labelled LL‐III peptide.
The lyophilized powders of the labeled and unlabeled LL-III peptide were purchased from GenScript, Germany.
The sequence of the LL-III peptide is NH2-VNWKKIL GKIIKVVK -CONH2. In th e labeled peptide, the fluorophore 6-carboxyfluorescein (FAM) was covalently attached to the N-terminus of the peptide. All the solutions were pre-pared in 20 mM sodium acetate buffer at pH 5.0. Deionized water was used for the buffer and all sample prepara- […]
Expression and purification of α-synuclein
The expression and purification of α-synuclein (α-Syn) was carried out as described before.[1,2] The plasmid was purchased from GenScript. The plasmid pT7- 7 expressing human α-synuclein was transformed into Escherichia coli strain BL21 (DE3). A single colony was picked and inoculated into 100 m l LB medium containing 150 μg/m l ampicillin and grown at 37°C with shaking at 250 rpm until the absorbance at 600 nm reached 0.8. Induction was then carried out by adding 1 mM IPTG (final concentration) and the culture was further grown under similar con-ditions for 3 h. The cells were harvested, resuspended in 0.75 ml of buffer (50 mM Tris-HCl, pH 7.5, 10 mM EDTA and 150 mM NaCl) and frozen at - 80 °C. Tubes containing frozen cells were placed in a boiling water bath for 7 min and the supernatant collected after centrifugation at maximum speed for […]. Streptomycin sulfate (136 μl/ml of supernatant) and glacial acetic acid (228 μl/ml of supernatant) were added and centrifuged for 2 min. Again, t he supernatant was recovered and precipitated with ammonium sulfate (saturated ammonium sulfate at 4°C was used 1:1, v/v, with supernatant). […]

## NH2-VNWKKIL GKIIKVVK -CONH2 [LL‐III]
[1]; 50 μM LL-III
  fraction of complexed α‐Syn, θ: about 0.3
[1]; 200 μM LL-III
  fraction of complexed α‐Syn, θ: 0.70
[1]; 500 μM LL-III
  fraction of complexed α‐Syn, θ: 0.90
[2]
  cytotoxicity: moderate cytotoxicity
[3]; ref [22]
  cellular localization: localizing mainly in the nucleolus and in granules
  translocation across plasma membrane: able to translocate across the plasma membrane of cancer cells
[3]; ref [28]
  activity against cancer cells: remarkable activity
[4]
  activity against several bacterial strains, fungi: remarkable activity
[5]; 100 μM monomeric α-Syn, LL-III 50–500 μM, 9 and 16 days, 20 mM sodium acetate, pH 5.0, 25 °C
  inhibition of α-Syn fibril formation: LL‐III inhibits formation of the amyloidogenic state of the protein
[5]; 100 μM α-Syn, 50 μM LL-III, 20 mM sodium acetate, pH 5.0, 25 °C
  inhibition of fibril formation at 50 μM LL-III: the formation of fibrils was already inhibited
[5]; 100 μM α-Syn, 200 μM and 500 μM LL-III, pH 5.0, 25 °C
  number of droplets: the number of droplets was significantly increased
[5]; 100 μM α-Syn, LL-III 50–500 μM, 16 days, pH 5.0, 25 °C
  effect on droplet condensate after 16 days: fostered formation of the droplet condensate
[5]; conclusion
  decondensation of the droplets: No decondensation of the droplets takes place
